Measured values published in the NIST ThermoML archive (doi:10.1016/j.jct.2015.12.017).

Assay: molar heat capacity at constant pressure
Settings: 101.33 kPa, Crystal 4, Vacuum adiabatic calorimetry

O=P([O-])([O-])[O-].[Co+2].[Cs+] [cesium cobalt(II) phosphate]
Settings	molar heat capacity at constant pressure [J/K/mol]
5 K	1.355
6 K	2.328
6.05 K	2.228
6.49 K	2.594
6.93 K	2.96
7 K	2.893
7.36 K	3.11
7.78 K	3.317
8 K	3.492
8.19 K	3.633
8.62 K	4.041
9 K	4.091
9.08 K	4.232
9.58 K	4.457
10 K	4.689
10.1 K	4.822
10.63 K	5.13
11.16 K	5.471
11.67 K	5.737
12.16 K	5.97
13 K	6.635
14.27 K	7.807
15 K	8.29
15.59 K	8.921
16.94 K	10.37
18.33 K	11.79
19.77 K	13.05
20 K	13.44
20.92 K	14.28
22.76 K	16.17
24.48 K	17.93
25 K	18.57
26.27 K	19.85
28.12 K	21.62
30 K	23.49
30.03 K	23.55
32 K	25.54
34.02 K	27.66
35 K	28.29
36.12 K	29.27
37.97 K	30.99
40 K	33.01
40.47 K	33.46
42.73 K	35.36
45 K	37.42
45.02 K	37.41
47.34 K	39.6
49.71 K	41.16
50 K	41.41
52.12 K	42.9
54.56 K	44.8
57.05 K	46.5
59.55 K	48
60 K	48.39
62.07 K	49.7
64.59 K	51.3
67.13 K	53
69.7 K	54.4
70 K	54.75
72.02 K	56.1
74.09 K	57.4
76.18 K	58.59
78.27 K	59.6
80 K	60.56
80.36 K	60.71
80.84 K	60.8
82.45 K	61.91
82.83 K	62.06
84.54 K	62.83
85.25 K	63.18
86.65 K	64.17
87.47 K	64.52
89.36 K	65.58
89.69 K	65.7
90 K	65.75
91.92 K	66.67
94.14 K	67.78
96.37 K	69.09
98.6 K	70.17
100 K	70.96
100.83 K	71.3
103.07 K	72.37
105.3 K	73.45
107.54 K	74.66
109.78 K	75.44
110 K	75.59
111.8 K	76.31
114.54 K	77.64
116.74 K	78.51
118.98 K	79.46
120 K	79.79
121.23 K	80.28
123.47 K	81.37
125.71 K	82.23
127.95 K	83.09
130 K	83.89
130.19 K	83.89
132.43 K	84.89
134.67 K	85.72
136.91 K	86.55
139.14 K	87.39
140 K	87.97
141.38 K	88.3
143.49 K	89.3
145.85 K	90.21
148.08 K	91.21
150 K	91.96
150.3 K	91.79
151.78 K	92.54
152.91 K	93.04
153.96 K	93.62
155.41 K	94.12
157.59 K	94.87
159.03 K	95.37
160 K	95.78
161.93 K	96.28
163.35 K	96.95
164.07 K	97.28
165.61 K	97.86
166.94 K	98.53
167.88 K	98.78
170 K	99.36
170.03 K	99.61
172.23 K	100.19
174.44 K	100.85
176.64 K	101.6
178.83 K	102.35
180 K	102.68
181.02 K	103.1
183.21 K	103.93
185.4 K	104.51
187.59 K	105.09
189.78 K	105.59
190 K	105.76
191.97 K	106.18
194.89 K	106.84
196.33 K	107.26
198.51 K	107.92
200 K	108.59
200.68 K	108.67
202.82 K	109.34
204.99 K	109.92
207.16 K	110.5
209.32 K	111.16
210 K	111.25
211.49 K	111.66
213.66 K	112.25
215.82 K	112.83
217.98 K	113.49
220 K	113.83
220.14 K	114.07
222.3 K	114.66
224.46 K	115.07
226.62 K	115.82
228.77 K	116.15
230 K	116.49
230.93 K	116.65
233.08 K	117.32
235.23 K	117.73
237.35 K	118.4
239.5 K	118.98
240 K	119.23
241.65 K	119.56
243.79 K	120.23
245.94 K	120.81
248.09 K	121.39
250 K	121.97
250.23 K	121.97
252.37 K	122.72
254.5 K	123.3
256.64 K	123.8
258.77 K	124.3
260 K	124.72
260.91 K	124.88
263.04 K	125.38
265.17 K	126.05
267.3 K	126.71
269.42 K	127.29
270 K	127.29
271.51 K	127.71
273.15 K	128.04
273.63 K	128.13
276.36 K	128.79
278.4 K	129.21
280 K	129.62
280.51 K	129.79
282.62 K	130.29
284.72 K	130.62
286.82 K	131.12
288.92 K	131.62
290 K	131.78
291.02 K	132.2
293.09 K	132.62
295.18 K	133.03
297.25 K	133.53
298.15 K	133.7
299.32 K	134.03
300 K	134.11
301 K	134.69
301.38 K	134.69
302.98 K	135.36
303.43 K	135.36
